Assay results as given in ChEMBL document CHEMBL3880438, “Identification of modulators of GPR41 or GPR42 activity” (2001).
Calls of active or inactive are those of the source. The calls are words filed in the database; no cut-off is given here.

Experiments:
[1] = target: T1, Free fatty acid receptor 3 (Homo sapiens) (UniProt O14843); experiment: Agonist activity at human GPR41 expressed in HEK293T cell membranes co-expressing Go1alpha protein assessed as stimulation of [35S]GTPgammaS binding at 0.1 microM to 0.1 M incubated for 30 mins by scintillation counting method; format: functional; conditions: HEK-293T
T1 sequence (whole entry): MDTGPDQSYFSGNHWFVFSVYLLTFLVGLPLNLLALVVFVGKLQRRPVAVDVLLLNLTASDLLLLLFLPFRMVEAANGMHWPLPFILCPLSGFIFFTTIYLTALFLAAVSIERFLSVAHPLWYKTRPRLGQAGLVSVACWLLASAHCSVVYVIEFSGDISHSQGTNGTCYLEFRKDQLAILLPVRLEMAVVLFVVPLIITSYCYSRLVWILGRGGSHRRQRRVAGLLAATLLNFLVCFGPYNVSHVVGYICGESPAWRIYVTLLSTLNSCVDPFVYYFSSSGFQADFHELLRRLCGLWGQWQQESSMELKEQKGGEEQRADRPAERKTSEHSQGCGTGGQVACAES

[2] = target: T2, Free fatty acid receptor 3 (Rattus norvegicus) (UniProt B2GV46); experiment: Agonist activity at rat GPR41 expressed in HEK293T cell membranes co-expressing Go1alpha protein assessed as stimulation of [35S]GTPgammaS binding at 0.1 microM to 0.1 M incubated for 30 mins by scintillation counting method; format: functional; conditions: HEK-293T
T2 sequence (whole entry): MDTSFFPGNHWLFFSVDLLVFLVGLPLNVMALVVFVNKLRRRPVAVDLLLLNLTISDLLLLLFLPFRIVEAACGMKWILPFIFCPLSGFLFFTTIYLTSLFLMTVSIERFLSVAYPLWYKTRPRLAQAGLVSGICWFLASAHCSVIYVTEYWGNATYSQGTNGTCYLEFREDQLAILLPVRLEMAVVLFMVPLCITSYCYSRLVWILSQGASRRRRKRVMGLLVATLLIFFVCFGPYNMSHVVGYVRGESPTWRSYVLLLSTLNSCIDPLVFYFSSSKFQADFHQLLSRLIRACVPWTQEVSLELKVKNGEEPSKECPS

[3] = target: T2, Free fatty acid receptor 3 (Rattus norvegicus); experiment: Agonist activity at GPR41 in rat primary adipocytes assessed as inhibition of isoprenaline-induced lipolysis by measuring glycerol level after 2 hrs; format: cell-based
[4] = target: T1, Free fatty acid receptor 3 (Homo sapiens); experiment: Agonist activity at human GPR41 expressed in HEK293T cell membranes co-expressing Go1lpha protein assessed as stimulation of [35S]GTPgammaS binding at 1 microM to 0.1 M incubated for 30 mins by scintillation counting method; format: functional; conditions: HEK-293T
[5] = target: T2, Free fatty acid receptor 3 (Rattus norvegicus); experiment: Agonist activity at rat GPR41 expressed in Saccharomyces cerevisiae MMY11 co-expressing chimeric Gpa1/Ga0 at 0.5 mM to 50 mM incubated for 48 hrs by induction of FUSl-lacZ and FUS1-HIS3 reporter gene induction based pheromone response pathway coupled assay
[6] = target: T2, Free fatty acid receptor 3 (Rattus norvegicus); experiment: Agonist activity at rat GPR41 expressed in Saccharomyces cerevisiae MMY11 co-expressing chimeric Gpa1/Galpha12 at 0.5 mM to 50 mM incubated for 48 hrs by induction of FUSl-lacZ and FUS1-HIS3 reporter gene induction based pheromone response pathway coupled assay
[7] = target: T2, Free fatty acid receptor 3 (Rattus norvegicus); experiment: Agonist activity at rat GPR41 expressed in Saccharomyces cerevisiae MMY11 co-expressing chimeric Gpa1/Galpha13 at 0.5 mM to 50 mM incubated for 48 hrs by induction of FUSl-lacZ and FUS1-HIS3 reporter gene induction based pheromone response pathway coupled assay

SMILES	Activity [1]	Activity [2]	Activity [3]	also measured
CC(=O)[O-].N.O=CO.[Na+]	Active	Active	Dose-dependent effect	
CC(=O)[O-].[Na+]			Dose-dependent effect	
CCCC(=O)[O-].CCCCC(=O)[O-].[K+].[Na+]	Active			
CCCCC(=O)[O-].[K+]			Active	
CC(O)CC(=O)O (racemic)				Activity [4]: Active
CCC(=O)[O-].[Na+] [SODIUM PROPIONATE]	Active	Active	Dose-dependent effect	Activity [5]: Active; Activity [6]: Active; Activity [7]: Active
